# Data as given in US6087336A, “Peptide derivatives useful in treating autoimmune diseases” (Zeneca Limited, priority 1996, dated 2000).
# Tested on: not given
# Experiment: not given
# Assay type: physicochemical
# Conditions: not given
# Description: Degradation of Dettide on in vitro release from an extruded polymer depot
# A solution of McIlvaine's citric acid-phosphate buffer solution at pH 7.6 containing 0.02% sodium azide, is filtered through a 0.22 μfilter and stored at 4° C. Approximately 10 mg of extruded polymer depot containing peptide is placed in two small vials and 2 ml of the buffer solution added. The vials are then capped and stored in a water bath at 37° C. for a month. At suitable time points over a month, three 0.6ml aliquots of release medium are removed from each vial and either analysed by HPLC or stored frozen in an HPLC vial at -18° C. prior to analysis by HPLC. 1.8 ml of the buffer solution is added to each vial containing the depot to replace the release medium that has been removed at each time point.
# The average amount of intact peptide in the release medium at each time point is determined by HPLC using duplicate sample injections by comparing the area of the peptide peak in the release media with the area of the peptide peak from standard buffer solutions of peptide at known concentrations. The approximate average amount of peptide degradation products in the release media at each time point is determined by HPLC by comparing the area of additional new peaks in the release media with the area of the peptide peak from standard buffer solutions of peptide at known concentrations and assuming the extinction coefficient has not changed. The average cumulative in vitro release profile of intact peptide and total peptide (intact peptide and peptide degradation products) is determined from the amounts of intact peptide and peptide degradation products in the release medium at each time point. Preferred peptides of the present invention show minimal degradation on in vitro release and thus show total peptide degradation products of less than 10% and preferably less than 5% of total peptide after a month of in vitro release into Mcllvaine's buffer solution at pH 7.6 at 37° C.
row,Substance,degradation on release from depot formulation
1,Phv-Ala-Arg-Ala-IIb-Ala-Arg-Ala-Papa-NH2 [Example 23],minimal degradation on release
2,Phv-Arg-Ala-Ala-Ala-Val-IIb-Ala-Pip-NH2 [Example 5],minimal degradation on release
3,Phv-Gap(Me)4 -Ala-Ala-Ala-Thr-IIb-Ala-Papa-NH2 [Example 16],minimal degradation on release

# Target: T1, HLA-DR4Dw4 (Homo sapiens, UniProt P01903+P01911, A100K/A169T/F76Y/I96L/K127E/L162R/M171V/N62H/P40V/Q125Y/R42H/S133A/S149N/S66Y/V115G/V209L/W38E)
# T1 construct: a cDNA encoding the β chain is cloned into the transfer vector pAcUW1; made in house; host or cells: Sf21 insect cells, double-recombinant baculovirus
# Experiment: Test A: purified HLA-DR peptide in vitro binding assay
# Conditions: purified HLA-DR4Dw4, biotin-FHA307-320
# Description: Test A: Purified HLA-DR peptide in vitro binding assay. […]. At the end of the incubation period 100 μl of the incubate is transferred to Enzyme Linked lmmunoSorbant Assay (ELISA) plates (Nunc) previously coated with an anti-MHC antibody (L243--American Type Culture Collection (ATCC) HB55 --as described in Lampson and Levy (1980) J. Immunol. 125, 293-299) at a concentration of 10 μg/ml for 1 hour at room temperature and blocked thereafter for 1 hour with 1% bovine serum albumin (BSA) in PBS and 0.05% Tween 20. After a further 1 hour period the unbound peptide is washed away and a 1/4,000 dilution of streptavidin peroxidase (Sigma) in PBS with 0.01% of a suitable detergent such as NP40 (Sigma) added for 2 hours at room temperature. After further washing, tetramethylbenzidene (TMB) substrate solution (1 TMB tablet (Sigma) in 10 mIs of 0.1 M citrate/acetate buffer, pH 6.0 with 36 μl urea hydrogen peroxide (UHPO) (Fluka)) is added to each of the plates. The reaction is stopped by adding 2M sulphuric acid (10 μl per well) and the absorbance read at 450 nm to quantify the amount of peptide bound. The inhibitory activity of peptides is obtained by plotting absorbance against concentration.
# The purified HLA-DR4Dw4 may be obtained as follows:
# (i) Expression of HLA-DR in the Baculovirus System
# The expression of recombinant proteins in insect cells from baculovirus vectors is an established procedure to obtain high yields of recombinant protein [Luckow, V A & Summers, M D, 1988, Biotechnology, 6, 47-551]. To enable the expression of the heterodimeric HLA-DR, eg. HLA-DR4Dw4, from a single recombinant baculovirus vector (as opposed to having separate recombinant viruses for the α and β chains and then doing a co-infection), a double-recombinant baculovirus is constructed which carries both the α and β chains.
# A cDNA encoding the sequence of the α polypeptide is cloned into the transfer vector pacYM1 [Matsuura, Y; Possee, R D; Overton, H A & Bishop, D H L, 1987, J. Gen. […] The molecular genetic techniques used to construct the recombinant vectors are likewise readily available in the literature and are most fully described by Sambrook, J; Fritsch, E F & Maniatis T, (1989) [Molecular Cloning. […]
# To create the double-recombinant baculovirus, a cDNA encoding the β chain is cloned into the transfer vector pAcUW1 [Weyer, U; Knight, S & Possee, R D, 1990, J. Gen. […] Double-recombinant viruses are detected by spotting insect cells, infected with randomly picked viruses from the transfection, onto membranes and reacting them with a monoclonal antibody, e.g. L243, which specifically recognises the HLA-DR heterodimer. Binding of the antibody to Sf21 insect cells is detected using standard flow cytometry techniques, readily available in the literature. […]
row,Substance,concentration showing significant binding to HLA-DR4Dw4 in Test A
1,Phv-Ala-Arg-Ala-IIb-Ala-Arg-Ala-Papa-NH2 [Example 23],< 0.1 µM
2,Phv-Arg-Ala-Ala-Ala-Val-IIb-Ala-Pip-NH2 [Example 5],< 0.1 µM
3,Phv-Gap(Me)4 -Ala-Ala-Ala-Thr-IIb-Ala-Papa-NH2 [Example 16],< 0.1 µM
